Earlier results as cited in EP3072529B1, “COMPOSITION COMPRISING VEMURAFENIB AND HPMC-AS” (ratiopharm GmbH, priority 2015, dated 2016).

Details: reported

In the case of `CCCS(=O)(=O)Nc1ccc(F)c(C(=O)c2c[nH]c3ncc(-c4ccc(Cl)cc4)cc23)c1F` [Vemurafenib base, propane-1-sulfonic acid {3-[5-(4-chlorophenyl)-1H-pyrrolo[2,3-b]pyridine-3-carbonyl]-2,4-difluorophenyl}-amide], the “solubility in aqueous and physiological solvents” value is listed as “practically insoluble”.
